Test results as given in publication PMC7811009, “Oxytocin modulates local topography of human functional connectome in healthy men at rest” (Communications Biology, 2021).

What was measured:
[1] = test system: human functional connectome at rest; experiment: Resting-state BOLD-fMRI, graph theory: nodal local efficiency (mesoscale); same doses, time and cohort; type: in vivo; settings: post-hoc paired t-tests, FDR
Description: (§1) Each experimental session began with the treatment administration protocol that lasted about 22 min in total (Fig. 8, lower panel). After drug administration, participants were guided to the MRI scanner, where eight pulsed continuous arterial spin labelling scans (each lasting approx. eight minutes) were acquired, spanning 15–104 min post-dosing (data reported elsewhere[11]). The 8-min resting state BOLD-fMRI scan reported herein was obtained at about 57 ± 3.38 min post-dosing. Participants were instructed to lie still and maintain their gaze on a centrally placed fixation cross during scanning. We assessed participants’ levels of alertness (anchors: alert-drowsy) and excitement (anchors: excited-calm) using visual analogue scales (0–100) at three different time-points during the scanning session to evaluate subjective drug effects across time (data reported elsewhere[11]).
(§2) We used the CONN functional connectivity toolbox[97] to generate brain-wide functional connectivity matrices for each subject/session. […] The default atlas of the CONN toolbox includes 132 non-overlapping ROIs spanning cortical and subcortical areas and the cerebellum using a combination of the cortical and subcortical areas from the FSL Harvard-Oxford atlas and of the cerebellar areas of the Automatic Anatomical Labelling atlas (Supplementary data 1 for a detailed description). […] Finally, we normalized our correlation measures to z-scores using the Fisher’s r-z transform per subject/session.
We then used our z-transformed connectivity matrices to construct brain graphs representing a functional connectivity network for each subject/session. We used an undirected signed weighted approach in which we kept information about the sign and weight of each of the connections between the nodes (ROIs) of our network, without making assumptions about the direction of this relationship. […]
(§3) For each of the graph metrics analysed, we summarized the different values over the range of thresholds using the area under the curve (AUC), instead of applying multiple testing for each metric/threshold. […]

[2] = cited from earlier work
Description: It is not yet clear which precise mechanisms mediate the effects of intravenous oxytocin on brain function. […] At least three mechanisms have been postulated. First, it is possible that the direct peripheral effects of oxytocin on oxytocin receptors expressed in vegetative territories, such as the heart, may be an indirect source of changes in the brain.

[3] = test system: human functional connectome at rest; experiment: Resting-state BOLD-fMRI, graph theory: nodal betweenness-centrality (mesoscale); 40 IU intranasal (spray/nebuliser) or 10 IU intravenous, about 57 min post-dosing, 16 healthy men; type: in vivo; settings: post-hoc paired t-tests, FDR
Description: as §1, §2
We then used our z-transformed connectivity matrices to construct brain graphs representing a functional connectivity network for each subject/session. We used an undirected signed weighted approach in which we kept information about the sign and weight of each of the connections between the nodes (ROIs) of our network, without making assumptions about the direction of this relationship. These connectivity matrices represent fully connected networks, where each node corresponds to each of the ROIs we used to build the functional connectivity matrices and each edge represents the z-transformed value of functional connectivity between a pair of nodes. […] We used the fully weighted networks to calculate equi-sparse networks by retaining a fixed percentage (K) of the total amount of possible edges. In order to determine systematic pharmacological effects on the network’s topological organization that are not dependent on the choice of an arbitrary threshold, we chose a range of sparsity thresholds from 5 to 34%, with steps of 1%, based on previous evidence showing the characteristic small-world behaviour of human brain networks is most consistently observed for this range[30]. For each network and sparsity level, we used the MATLAB functions provided with the Brain Connectivity Toolbox[16] to compute four global and regional network metrics: global efficiency, node degree, local efficiency and betweenness-centrality. Details on the calculation of each of these metrics have been described elsewhere. The combination of these four metrics allows us to test for treatment effects on connectivity at both global and regional levels, taking into account complementary aspects of functional integration of information exchange within the brain network. […]
as §3

[4] = test system: human functional connectome at rest; experiment: Resting-state BOLD-fMRI: mean brain-wide functional connectivity (macroscale); type: in vivo; settings: repeated measures one-way ANOVA, F(2.271, 34.070) = 0.774, p = 0.484
Description: as §1
MRI data were acquired on a 3 T MR750 system (GE Healthcare, Waukesha, Wisconsin) with a 32-channel head coil. Functional data was acquired using a shot multi-echo echo planar imaging (EPI) sequence (TR = 2500 ms, TE’s = 12, 28, 44 and 60 ms, FA = 80°, FOV = 240 × 240 mm^2, Matrix = 64 × 64, Slice thickness = 3 mm, 32 continuous descending axial slices, resolution = 3.75 × 3.75 × 3 mm). […] The resting state fMRI scan lasted 8 min 10 s, with collection of a total of 192 volumes for each echo. […]

## CC[C@H](C)[C@@H]1NC(=O)[C@H](Cc2ccc(O)cc2)NC(=O)[C@@H](N)CSSC[C@@H](C(=O)N2CCC[C@H]2C(=O)N[C@@H](CC(C)C)C(=O)NCC(N)=O)NC(=O)[C@H](CC(N)=O)NC(=O)[C@H](CCC(N)=O)NC1=O [oxytocin]
[1]; intravenous, 10 IU
  Nodes with increased local efficiency compared to placebo: increased the local efficiency of the right superior frontal gyrus, right frontal pole, anterior cingulate, left cuneal cortex, right posterior supramarginal gyrus and the brainstem
[1]; nebuliser, 40 IU intranasal
  Nodes with increased local efficiency compared to placebo: increased the local efficiency of the right cuneal cortex and the left posterior supramarginal gyrus
[1]; spray, 40 IU intranasal
  Nodes with increased local efficiency compared to placebo: increased the local efficiency of the right superior frontal gyrus, right anterior and posterior medial temporal gyri, right posterior superior temporal gyrus, right cuneal cortex and left cerebellum (area 1)
[2]
  Amount crossing the blood–brain barrier (BBB): very small amounts
[2]; same doses/methods and cohort of participants
  Effects on heart-rate or heart-rate variability: absence of effects
[3]; intravenous, 10 IU
  Nodes with decreased betweenness-centrality compared to placebo: decreased the betweenness-centrality of the right amygdala and the anterior parahipoccampal gyrus
  Nodes with increased betweenness-centrality compared to placebo: increased the betweenness-centrality of the right and left occipital poles, left postcentral gyrus, right supramarginal gyrus and left and right cerebellum (areas 4–5 and area 10, respectively)
[3]; nebuliser, 40 IU intranasal
  Nodes with increased betweenness-centrality compared to placebo: increased the betweenness-centrality of the temporo-occipital area of the left middle temporal gyrus and the left cerebellum (area 7)
[3]; spray, 40 IU intranasal
  Nodes with decreased betweenness-centrality compared to placebo: decreased the betweenness-centrality of the precuneus, right posterior supramarginal and middle temporal gyri, the left anterior middle temporal gyrus and the right cerebellum (area 9)
  Nodes with increased betweenness-centrality compared to placebo: increased the betweenness-centrality of the right orbitofrontal cortex, left lateral occipital cortex, right temporal occipital fusiform cortex and left occipital pole
[4]
  Differences in mean functional connectivity across the four treatment conditions: no significant differences
